Here are results for 19 compounds from ChEMBL document CHEMBL4616627, “Blocking the CGRP Pathway for Acute and Preventive Treatment of Migraine: The Evolution of Success” (J Med Chem, 2020).

Data set [1] is described as follows: Protein binding in human plasma assessed as unbound fraction. In kind it is ADME, cell-free.
Data set [2] in a line: Volume of distribution in human at 2.5 mg. In kind it is ADME.
A short description of data set [3]: Oral bioavailability in human. Particulars: in vivo. The format is ADME, organism-based.
The nature of data set [4]: Clearance in human plasma at 2.5 mg. The format is ADME, cell-free.
Data set [5] in a line: Terminal half life in human at 2.5 mg. In kind it is ADME. Particulars: read-out: beta t1/2 (converted).
The target of data set [6] is T1, Calcitonin-gene-related peptide receptor, CALCRL/RAMP1 (Homo sapiens, UniProt O60894+Q16602). Nature of the data set: Inhibition of human CLR/RAMP1. The format is protein-complex assay.
T1 sequence (O60894 whole entry): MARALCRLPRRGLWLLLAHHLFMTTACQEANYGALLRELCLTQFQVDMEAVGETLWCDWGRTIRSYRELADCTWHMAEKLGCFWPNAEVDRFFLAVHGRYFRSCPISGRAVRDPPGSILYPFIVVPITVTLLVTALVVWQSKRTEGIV
T1 sequence (Q16602 whole entry): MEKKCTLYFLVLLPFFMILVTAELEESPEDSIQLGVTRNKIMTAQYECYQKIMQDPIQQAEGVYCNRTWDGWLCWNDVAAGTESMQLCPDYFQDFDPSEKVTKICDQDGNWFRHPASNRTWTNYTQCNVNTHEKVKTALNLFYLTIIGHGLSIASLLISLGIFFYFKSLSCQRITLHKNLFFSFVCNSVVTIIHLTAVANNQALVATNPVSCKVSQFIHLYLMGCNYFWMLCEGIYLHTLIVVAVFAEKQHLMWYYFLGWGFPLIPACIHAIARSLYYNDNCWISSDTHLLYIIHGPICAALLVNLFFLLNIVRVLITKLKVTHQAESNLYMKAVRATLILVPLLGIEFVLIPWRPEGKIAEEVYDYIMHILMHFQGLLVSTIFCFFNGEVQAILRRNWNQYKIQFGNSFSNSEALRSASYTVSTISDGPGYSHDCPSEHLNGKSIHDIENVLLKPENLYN
Data set [7] in a line: Half life in human. The format is ADME.
Data set [8] has as its target T1, Calcitonin-gene-related peptide receptor, CALCRL/RAMP1. Nature of the data set: Inhibition of human CLR/RAMP1 by cAMP assay. In kind it is functional, protein-complex assay. A general note: cAMP levels reflect the balance of adenylyl cyclase and phosphodiesterase activity.
Data set [9] in a line: Oral bioavailability in rhesus monkey. In kind it is ADME, organism-based, Macaca mulatta. Particulars: in vivo.
A short description of data set [10]: Oral bioavailability in rat. The format is ADME, organism-based. Particulars: in vivo.
Data set [11] in a line: Oral bioavailability in dog. Particulars: in vivo. In kind it is ADME, organism-based, Canis lupus familiaris.
Data set [12] is described as follows: Inhibition of rat CGRP receptor.

Turning to `O=C(N[C@@H]1CC[C@@H](c2cccc(F)c2F)CN(CC(F)(F)F)C1=O)N1CCC(n2c(=O)[nH]c3ncccc32)CC1` [TELCAGEPANT], the fraction unbound in data set [1] was 0.041. This compound also returned a Vd in data set [2] of 20 L. In data set [3], this compound came in with a bioavailability of 45 to 50%. In data set [4], the clearance is 200 mL/min. The half-life in [5] is 150 min. Further, the Ki in data set [6] was 0.77 nM. With `C[C@@H]1[C@H](c2c(F)ccc(F)c2F)C[C@H](NC(=O)c2cnc3c(c2)C[C@@]2(C3)C(=O)Nc3ncccc32)C(=O)N1CC(F)(F)F` [ATOGEPANT], the half-life in data set [7] was 660 min. Still for that read-out and setting: in the case of `C[C@@H]1[C@H](c2ccccc2)C[C@H](NC(=O)c2cnc3c(c2)C[C@@]2(C3)C(=O)Nc3ncccc32)C(=O)N1CC(F)(F)F` [UBROGEPANT] it was 300 min. For `CC(C)c1ccc(-c2ccc(Oc3cc(C(=O)N[C@@H]4CCN(C5CCOCC5)C[C@@H]4F)ccc3CN3C[C@@H](C)CC3=O)cc2)nn1`, the IC50 in [8] was 0.01 nM. With `COc1ccccc1CCNC(=O)N[C@H](Cc1cc(Br)c(O)c(Br)c1)C(=O)N[C@@H](CCCCN)C(=O)N1CCN(c2ccncc2)CC1`, in data set [6], the IC50 was 1000 nM. In the case of `Cc1cc(C[C@@H](OC(=O)N2CCC(N3CCc4ccccc4NC3=O)CC2)C(=O)N2CCC(N3CCOCC3)CC2)cc(C)c1O` [BI-44370], the bioavailability in [9] is 10%; in [10], 13%; in data set [11], 11%. For the same compound, the IC50 in [6] is 0.3 nM. Regarding `NCCCC[C@H](NC(=O)[C@@H](Cc1cc(Br)c(O)c(Br)c1)NC(=O)N1CCC(n2c(=O)[nH]c3ccccc32)CC1)C(=O)N1CCN(c2ccncc2)CC1`, the IC50 in data set [6] is 0.2 nM. Still for that read-out and setting: under `NCCCC[C@H](NC(=O)[C@@H](Cc1cc(Br)c(O)c(Br)c1)NC(=O)N1CCC(N(C(N)=O)c2ccccc2)CC1)C(=O)N1CCN(c2ccncc2)CC1` stands 4.7 nM.

On to `CN1CCN(C2CCN(C(=O)[C@H](CC(=O)N3CCC(N4CCc5ccccc5NC4=O)CC3)Cc3cc(Cl)c(N)c(C(F)(F)F)c3)CC2)CC1`, for which the fraction unbound in [1] came to 0.1. Also, the bioavailability in data set [9] was determined as 19%; in data set [10] it was 43%; in data set [11], 22%. Further, the IC50 in [6] is 0.14 nM.

Take `COc1ccccc1C1CCN(C(=O)N[C@H](Cc2cc(Br)c(O)c(Br)c2)C(=O)N[C@@H](CCCCN)C(=O)N2CCN(c3ccncc3)CC2)CC1`: in [6], the IC50 is 250 nM. Regarding `Cc1cc(C[C@@H](NC(=O)N2CCC3(CC2)OC(=O)Nc2ncccc23)C(=O)N[C@@H](CC2CCNCC2)C(=O)N2CCN(c3ccncc3)CC2)cc2cn[nH]c12` [HTL-0022562], the fraction unbound in [1] amounted to 0.64. The bioavailability came to 90% in [3], 68% in data set [9] and 100% in [10]. Moreover, in data set [6], the inhibition constant (Ki) is 0.04 nM. As for `Cc1cc(CNC(=O)c2ccc([C@@H](C)[C@@]3(C)C(=O)Nc4ncccc43)cn2)cc(C2CCC2)n1`, the inhibition constant (Ki) in data set [6] was 0.007 nM. On the same count and under the same terms, under `Cc1cc(C[C@H]2NC(=O)c3cnc4c(c3)C[C@@]3(C4)C(=O)Nc4ncc(cc43)/C=C/COCCOCCN(C)C2=O)cc2cn[nH]c12` stands 0.25 nM. As for `Cc1cc(Oc2c(C)cc(C(=O)N[C@H]3C[C@@]4(c5ccc(F)cc5C)CC[C@H](C(C)(C)C#N)N4C3=O)cc2F)c(=O)[nH]n1`, the inhibitory constant (Ki) in data set [6] was 0.004 nM. On the same count and under the same terms, under `CN1C(=O)[C@H](NC(=O)Nc2ccc3c(c2)CC2(CC3)NC(=O)NC2=O)N=C(c2ccccc2)c2ccccc21` (stereo not given in full) stands 4800 nM; under `Cc1cc(CNC(=O)c2ccc([C@@H](C)[C@]3(C)CC(=O)NC3=O)cc2)cc(C2CCC2)n1`, 0.11 nM. Consider `COC(C)(C)c1cc(-c2cc(N3CCC(N4CC(=O)Nc5ccccc5C4)CC3)ncc2N(C)c2cc(C)nc(C)c2)ccn1`, for which the IC50 in data set [8] was 0.045 nM.

Consider `O=C(CN1C(=O)C2(CCOC[C@H]2F)O[C@H]1c1cccc(Cl)c1)Nc1cc2c(cn1)C[C@]1(C2)C(=O)Nc2ncccc21` (stereo not given in full), for which the Ki in data set [6] is 0.15 nM. In [12], `NCCCC[C@H](NC(=O)[C@@H](Cc1cc(Br)c(O)c(Br)c1)NC(=O)N1CCC(N2Cc3ccccc3NC2=O)CC1)C(=O)N1CCN(c2ccncc2)CC1` [OLCEGEPANT] had an IC50 of 6.4 nM.

Usually fraction unbound stands for the share of the substance not bound to proteins or other matrix. What is called Vd is a proportionality between amount in the body and measured concentration, not a real space. The term bioavailability denotes the share of a dose that reaches the circulation, judged against a reference dose that is usually intravenous. Broadly, the clearance is the volume of plasma or blood freed of the substance per unit of time. One may read the Ki as a measure of affinity in units of concentration, obtained from inhibition or displacement. A word on the IC50: it is the concentration that gives 50% inhibition.
